Common to all, as to type: cell-based, B. subtilis
For assay [1], the system named is ltaS mutant. Briefly: Susceptibility of ltaS mutant to lysozyme. Particulars: data not shown. The source says:
(§1) In the process of constructing the deletion strain, we noticed that the ltaS mutant was also hyper-sensitive to various antibiotics and lysozyme. […] In other experiments on solid medium the zone of inhibition of all antibiotics tested (kanamycin, ampicillin, vancomycin, penicillin, spectinomycin, erythromycin, lincomycin, carbenicillin) was wider for the ltaS mutant than for the wild-type (not shown). […] The general increase in sensitivity of the mutant to antibiotics and lysozyme is consistent with the notion that LTA also provides a protective layer that restricts the access of many bioactive agents to sensitive sites in the cell envelope.

The test system of assay [2] is ltaS mutant. Briefly: Zone of inhibition on solid medium, ltaS mutant compared with wild-type. The settings on record: data not shown.
Source text: as §1

Another assay deals with wild-type (168). Briefly: Sensitivity to cations, dilutions spotted on NA plates, wild-type. Particulars: 0.05 mM MnSO4 added to nutrient agar (NA), 37° C. The procedure: (§2) FIG. 3—Effect of metal ion concentration of viability of wild-type and ltaS mutants: A. Growth of wild-type (168) and ltaS mutant (strain 4286) at 37° C. in on NA plates without additives (left), containing 0.5 mM Mg^2+ (middle) or with addition of 0.05 mM Mn^2+ (right). B. Growth of ltaS mutant (strain 4283, left) and wild-type (strain 168, right) on minimal medium plates containing 10, 100 and 500 μM Mg^2+ as indicated.
(§3) Liquid cultures of B. subtilis strains were grown in Difco Antibiotic Medium 3 (PAB), CH medium (Nicholson & Setlow, 1990), or S-medium (Karamata & Gross, 1970) at 37° C. Nutrient agar (Oxoid) plates were used for growth on solid medium, Modified Salts Medium plates with defined Mg^2+ concentrations were prepared as described previously (Carballido-López et al., 2006). The given concentration of Mg^2+ was achieved by addition of MgSO4 to the medium. DNA manipulations and B. subtilis strains were transformed according to the method of Anagnostopoulos and Spizizen (1961) as modified by Jenkinson (1983). Selection for B. subtilis transformants was carried out on nutrient agar (Oxoid), supplemented with antibiotics, as required, with: kanamycin ([…]) chloramphenicol ([…]), erythromycin ([…] ml^−1), lincomycin ([…] ml^−1) and/or spectinomycin ([…]). […]

Assay [3] relates to ltaS mutant (strain 4286). Briefly: Sensitivity to cations, dilutions spotted on NA plates, ltaS mutant. The settings on record: 37° C. As to the method: as §2, §3

Take lysozyme: the “susceptibility of the ltaS mutant to lysozyme” value in the assay on ltaS mutant [1] is reported as “increased susceptibility”. With `CN[C@H](CC(C)C)C(=O)N[C@H]1C(=O)N[C@@H](CC(N)=O)C(=O)N[C@H]2C(=O)N[C@H]3C(=O)N[C@H](C(=O)N[C@H](C(=O)O)c4cc(O)cc(O)c4-c4cc3ccc4O)[C@H](O)c3ccc(c(Cl)c3)Oc3cc2cc(c3O[C@@H]2O[C@H](CO)[C@@H](O)[C@H](O)[C@H]2O[C@H]2C[C@](C)(N)[C@H](O)[C@H](C)O2)Oc2ccc(cc2Cl)[C@H]1O` [vancomycin], the “zone of inhibition for the ltaS mutant versus the wild-type” value in the assay with ltaS mutant [2] is recorded as “wider”. Regarding `CC1(C)S[C@@H]2[C@H](NC(=O)[C@H](N)c3ccccc3)C(=O)N2[C@H]1C(=O)O` [ampicillin], the “zone of inhibition for the ltaS mutant versus the wild-type” value with ltaS mutant [2] was “wider”.

With `CC1(C)S[C@@H]2[C@H](NC(=O)C(C(=O)O)c3ccccc3)C(=O)N2[C@H]1C(=O)O` (some centres unmarked) [carbenicillin], the “zone of inhibition for the ltaS mutant versus the wild-type” value with ltaS mutant [2] was “wider”. With `CC[C@H]1OC(=O)[C@H](C)[C@@H](O[C@H]2C[C@@](C)(OC)[C@@H](O)[C@H](C)O2)[C@H](C)[C@@H](O[C@@H]2O[C@H](C)C[C@H](N(C)C)[C@H]2O)[C@](C)(O)C[C@@H](C)C(=O)[C@H](C)[C@@H](O)[C@]1(C)O` [erythromycin], the “zone of inhibition for the ltaS mutant versus the wild-type” value in the assay on ltaS mutant [2] is reported as “wider”. With `O=S(=O)([O-])[O-].[Mn+2]` [MnSO4], in the assay on wild-type (168), the “growth of the wild-type” value is listed as “unaffected”. Besides, in assay [3] (0.05 mM MnSO4 added to nutrient agar (NA)), the “growth of the ltaS mutant” value is reported as “abolished growth”. Turning to `CN[C@@H]1[C@H](O)[C@H](NC)[C@H]2O[C@@]3(O)C(=O)C[C@@H](C)O[C@H]3O[C@@H]2[C@H]1O` [spectinomycin], the “zone of inhibition for the ltaS mutant versus the wild-type” value in the assay with ltaS mutant [2] is “wider”. As to penicillin, the “zone of inhibition for the ltaS mutant versus the wild-type” value with ltaS mutant [2] is on record as “wider”.

Take `O=S(=O)([O-])[O-].[Mg+2]` [Mg^2+, MgSO4]: the “growth of the ltaS mutant” value in assay [3] (0.5 mM Mg^2+ added to nutrient agar (NA)) is reported as “no effect”. Turning to `CCC[C@@H]1C[C@@H](C(=O)N[C@@H]([C@H]2O[C@H](SC)[C@H](O)[C@@H](O)[C@H]2O)[C@@H](C)O)N(C)C1` [lincomycin], the “zone of inhibition for the ltaS mutant versus the wild-type” value in the assay with ltaS mutant [2] is reported as “wider”.

The record behind these values is patent US20110282028A1, “METHOD FOR IDENTIFYING INHIBITORS OF LIPOTEICHOIC ACID SYNTHASE” (UNIVERSITY OF NEWCASTLE UPON TYNE, priority 2008, published 2011).
